Source: EP0192609A2, “Acylated hexose derivatives and method for their preparation” (CIBA-GEIGY AG, priority 1985, dated 1986)

Test system: Influenza-Viren
Test: own studies in mice infected with influenza viruses (prophylaxis and therapy of virus infection, compound alone without vaccine)
Type: in vivo, Mäuse
Conditions: per se, i.e. without added vaccine
Source text: Aus der Französischen Patentanmeldung Nr. 74 22 909 mit der Publikationsnummer 2 292 486 sind Muramylpeptide vom Typ der Verbindung N-Acetyl-muramyl-L-alanyl-D-isoglutamin ("MDP") bekannt. Diese Verbindungen sind als immunologische Adjuvanzien beschrieben, d.h. sie können in Mischung mit Impfstoffen dazu benützt werden, den Impferfolg zu verbessern. Eigene Untersuchungen, z.B. bei mit Influenza-Viren infizierten Mäusen, haben ergeben, dass N-Acetyl-muramyl-L-alanyl-D-isoglutamin per se, d.h. ohne Beimengung von Impfstoffen, bei der Prophylaxe und Therapie von Virusinfektionen unwirksam ist. Auch ist die Verwendbarkeit strukturell einfacher Muramylpeptide und ihrer Analogen gegen Virusinfektionen bisher nicht beschrieben.

Structure (SMILES): CC(=O)N[C@H]1C(O)O[C@H](CO)[C@@H](O)[C@@H]1O[C@H](C)C(=O)N[C@@H](C)C(=O)N[C@H](CCC(=O)O)C(N)=O (stereo partly drawn) [N-Acetyl-muramyl-L-alanyl-D-isoglutamin]
- Wirksamkeit bei der Prophylaxe und Therapie von Virusinfektionen: unwirksam
